Results taken from ChEMBL document CHEMBL1156041, “Synthesis and antifungal activity of benzo[d]oxazole-4,7-diones” (2009).
Values after ≈ are worked out from the molar mass of the structure shown.

What was measured:
Assay type in all cases: functional
Aspergillus flavus = assay: Antifungal activity against Aspergillus flavus KCCM 11899 by twofold broth dilution method
Aspergillus niger = assay: Antifungal activity against Aspergillus niger KCTC 1231 after 2 days by twofold broth dilution method; settings: KCTC 1231, 48 h
Pichia kudriavzevii = assay: Antifungal activity against Candida krusei Berkout KCCM 11655 after 1 day by twofold broth dilution method; settings: KCCM 11655, 24 h
Candida albicans = assay: Antifungal activity against Candida albicans Berkout KCCM 50235 after 1 day by twofold broth dilution method; settings: KCCM 50235, 24 h
Candida tropicalis = assay: Antifungal activity against Candida tropicalis Berkout KCCM 50662 after 1 day by twofold broth dilution method; settings: KCCM 50662, 24 h
Cryptococcus neoformans = assay: Antifungal activity against Cryptococcus neoformans KCCM 50564 after 1 day by twofold broth dilution method; settings: KCCM 50564, 24 h

CCc1nc2c(N)cccc2o1 showed an MIC (Aspergillus flavus) of over 100 µg/mL, an MIC (Aspergillus niger) of over 100 µg/mL and an MIC (Pichia kudriavzevii) of 100 µg/mL (≈ 617 µM). It also gave an MIC (Candida albicans) of over 100 µg/mL, an MIC (Candida tropicalis) of 50 µg/mL (≈ 308 µM) and an MIC (Cryptococcus neoformans) of 100 µg/mL (≈ 617 µM).
In the case of CCc1nc2c(o1)C(=O)C(Nc1cccc(Cl)c1)=C(Br)C2=O, the MIC (Aspergillus flavus) is reported as 3.2 µg/mL (≈ 8.39 µM), the MIC (Aspergillus niger) is reported as 3.2 µg/mL (≈ 8.39 µM) and the MIC (Pichia kudriavzevii) is reported as 6.3 µg/mL (≈ 16.5 µM). It also gave an MIC (Candida albicans) of 6.3 µg/mL (≈ 16.5 µM), an MIC (Candida tropicalis) of 6.3 µg/mL (≈ 16.5 µM) and an MIC (Cryptococcus neoformans) of 3.2 µg/mL (≈ 8.39 µM).
Work on CCc1nc2c(o1)C(=O)C(Nc1ccc(Br)cc1)=C(Br)C2=O yielded an MIC (Aspergillus flavus) of 1.6 µg/mL (≈ 3.76 µM), an MIC (Aspergillus niger) of 0.8 µg/mL (≈ 1.88 µM) and an MIC (Pichia kudriavzevii) of 3.2 µg/mL (≈ 7.51 µM). The MIC (Candida albicans) was 0.8 µg/mL (≈ 1.88 µM), the MIC (Candida tropicalis) was 3.2 µg/mL (≈ 7.51 µM) and the MIC (Cryptococcus neoformans) was 1.6 µg/mL (≈ 3.76 µM).
Work on CCc1nc2c(o1)C(=O)C(Sc1ccc(C)c(C)c1)=C(Sc1ccc(C)c(C)c1)C2=O yielded an MIC (Aspergillus flavus) of 6.3 µg/mL (≈ 14 µM), an MIC (Aspergillus niger) of 12.5 µg/mL (≈ 27.8 µM) and an MIC (Pichia kudriavzevii) of 3.2 µg/mL (≈ 7.12 µM). The MIC (Candida albicans) was 25 µg/mL (≈ 55.6 µM), the MIC (Candida tropicalis) was 12.5 µg/mL (≈ 27.8 µM) and the MIC (Cryptococcus neoformans) was 12.5 µg/mL (≈ 27.8 µM).
With CCc1nc2c(o1)C(=O)C(Nc1ccc(F)cc1)=C(Br)C2=O the MIC (Aspergillus flavus) was 3.2 µg/mL (≈ 8.76 µM), the MIC (Aspergillus niger) was 6.3 µg/mL (≈ 17.3 µM) and the MIC (Pichia kudriavzevii) was 6.3 µg/mL (≈ 17.3 µM). It also gave an MIC (Candida albicans) of 12.5 µg/mL (≈ 34.2 µM), an MIC (Candida tropicalis) of 6.3 µg/mL (≈ 17.3 µM) and an MIC (Cryptococcus neoformans) of 6.3 µg/mL (≈ 17.3 µM).
In the case of CCc1nc2c(o1)C(=O)C(Nc1cccc(C#N)c1)=C(Br)C2=O, the MIC (Aspergillus flavus) is reported as 6.3 µg/mL (≈ 16.9 µM), the MIC (Aspergillus niger) is reported as 12.5 µg/mL (≈ 33.6 µM) and the MIC (Pichia kudriavzevii) is reported as 50 µg/mL (≈ 134 µM). The MIC (Candida albicans) was 12.5 µg/mL (≈ 33.6 µM), the MIC (Candida tropicalis) was 6.3 µg/mL (≈ 16.9 µM) and the MIC (Cryptococcus neoformans) was 12.5 µg/mL (≈ 33.6 µM).
CCc1nc2c(o1)C(=O)C(Sc1ccc(Br)c(Br)c1)=C(Sc1ccc(Br)c(Br)c1)C2=O gave an MIC (Aspergillus flavus) of 25 µg/mL (≈ 35.3 µM), an MIC (Aspergillus niger) of 25 µg/mL (≈ 35.3 µM) and an MIC (Pichia kudriavzevii) of 12.5 µg/mL (≈ 17.6 µM). For the same compound, the MIC (Candida albicans) was 50 µg/mL (≈ 70.5 µM), the MIC (Candida tropicalis) was 50 µg/mL (≈ 70.5 µM) and the MIC (Cryptococcus neoformans) was 12.5 µg/mL (≈ 17.6 µM).
Work on CCc1nc2c(o1)C(=O)C(Nc1cccc(O)c1)=C(Br)C2=O yielded an MIC (Aspergillus flavus) of 25 µg/mL (≈ 68.8 µM), an MIC (Aspergillus niger) of 50 µg/mL (≈ 138 µM) and an MIC (Pichia kudriavzevii) of 25 µg/mL (≈ 68.8 µM). The MIC (Candida albicans) was 50 µg/mL (≈ 138 µM), the MIC (Candida tropicalis) was 6.3 µg/mL (≈ 17.3 µM) and the MIC (Cryptococcus neoformans) was 25 µg/mL (≈ 68.8 µM).
Compound CCc1nc2c(o1)C(=O)C(Nc1ccccc1)=C(Br)C2=O has an MIC (Aspergillus flavus) of 3.2 µg/mL (≈ 9.22 µM), an MIC (Aspergillus niger) of 1.6 µg/mL (≈ 4.61 µM) and an MIC (Pichia kudriavzevii) of 3.2 µg/mL (≈ 9.22 µM). For the same compound, the MIC (Candida albicans) was 1.6 µg/mL (≈ 4.61 µM), the MIC (Candida tropicalis) was 3.2 µg/mL (≈ 9.22 µM) and the MIC (Cryptococcus neoformans) was 1.6 µg/mL (≈ 4.61 µM).
With CCc1nc2c(o1)C(=O)C(Nc1ccc(Cl)cc1)=C(Br)C2=O the MIC (Aspergillus flavus) was 3.2 µg/mL (≈ 8.39 µM), the MIC (Aspergillus niger) was 3.2 µg/mL (≈ 8.39 µM) and the MIC (Pichia kudriavzevii) was 6.3 µg/mL (≈ 16.5 µM). The MIC (Candida albicans) was 6.3 µg/mL (≈ 16.5 µM), the MIC (Candida tropicalis) was 25 µg/mL (≈ 65.5 µM) and the MIC (Cryptococcus neoformans) was 6.3 µg/mL (≈ 16.5 µM).
CCc1nc2c(o1)C(=O)C(Nc1ccc(OC)cc1)=C(Br)C2=O gave an MIC (Aspergillus flavus) of 6.3 µg/mL (≈ 16.7 µM), an MIC (Aspergillus niger) of 3.2 µg/mL (≈ 8.48 µM) and an MIC (Pichia kudriavzevii) of 1.6 µg/mL (≈ 4.24 µM). The MIC (Candida albicans) was 6.35 µg/mL (≈ 16.8 µM), the MIC (Candida tropicalis) was 12.5 µg/mL (≈ 33.1 µM) and the MIC (Cryptococcus neoformans) was 3.2 µg/mL (≈ 8.48 µM).
CCc1nc2c(o1)C(=O)C(Sc1ccc(CC)c(CC)c1)=C(Sc1ccc(CC)c(CC)c1)C2=O showed an MIC (Aspergillus flavus) of 25 µg/mL (≈ 49.4 µM), an MIC (Aspergillus niger) of 25 µg/mL (≈ 49.4 µM) and an MIC (Pichia kudriavzevii) of 50 µg/mL (≈ 98.9 µM). The MIC (Candida albicans) was 12.5 µg/mL (≈ 24.7 µM), the MIC (Candida tropicalis) was 25 µg/mL (≈ 49.4 µM) and the MIC (Cryptococcus neoformans) was 25 µg/mL (≈ 49.4 µM).
CCc1nc2c(o1)C(=O)C(Nc1ccc([N+](=O)[O-])cc1)=C(Br)C2=O showed an MIC (Aspergillus flavus) of 25 µg/mL (≈ 63.7 µM), an MIC (Aspergillus niger) of 25 µg/mL (≈ 63.7 µM) and an MIC (Pichia kudriavzevii) of 50 µg/mL (≈ 127 µM). It also gave an MIC (Candida albicans) of 50 µg/mL (≈ 127 µM), an MIC (Candida tropicalis) of 50 µg/mL (≈ 127 µM) and an MIC (Cryptococcus neoformans) of 25 µg/mL (≈ 63.7 µM).
CCc1nc2c(o1)C(=O)C(Sc1ccccc1)=C(Sc1ccccc1)C2=O was tested, and the MIC (Aspergillus flavus) was 12.5 µg/mL (≈ 31.8 µM), the MIC (Aspergillus niger) was 12.5 µg/mL (≈ 31.8 µM) and the MIC (Pichia kudriavzevii) was 12.5 µg/mL (≈ 31.8 µM). For the same compound, the MIC (Candida albicans) was 12.5 µg/mL (≈ 31.8 µM), the MIC (Candida tropicalis) was 12.5 µg/mL (≈ 31.8 µM) and the MIC (Cryptococcus neoformans) was 12.5 µg/mL (≈ 31.8 µM).
CCc1nc2c(o1)C(=O)C(Nc1cccc(F)c1)=C(Br)C2=O gave an MIC (Aspergillus flavus) of 6.3 µg/mL (≈ 17.3 µM), an MIC (Aspergillus niger) of 6.3 µg/mL (≈ 17.3 µM) and an MIC (Pichia kudriavzevii) of 6.3 µg/mL (≈ 17.3 µM). The MIC (Candida albicans) was 12.5 µg/mL (≈ 34.2 µM), the MIC (Candida tropicalis) was 3.2 µg/mL (≈ 8.76 µM) and the MIC (Cryptococcus neoformans) was 6.3 µg/mL (≈ 17.3 µM).
CCc1nc2c(o1)C(=O)C(Nc1ccc(I)cc1)=C(Br)C2=O showed an MIC (Aspergillus flavus) of 3.2 µg/mL (≈ 6.76 µM), an MIC (Aspergillus niger) of 6.3 µg/mL (≈ 13.3 µM) and an MIC (Pichia kudriavzevii) of 3.2 µg/mL (≈ 6.76 µM). For the same compound, the MIC (Candida albicans) was 6.3 µg/mL (≈ 13.3 µM), the MIC (Candida tropicalis) was 6.3 µg/mL (≈ 13.3 µM) and the MIC (Cryptococcus neoformans) was 3.2 µg/mL (≈ 6.76 µM).
For CCc1nc2c(o1)C(=O)C(Nc1ccc(O)cc1)=C(Br)C2=O, the MIC (Aspergillus flavus) was 25 µg/mL (≈ 68.8 µM), the MIC (Aspergillus niger) was 50 µg/mL (≈ 138 µM) and the MIC (Pichia kudriavzevii) was 25 µg/mL (≈ 68.8 µM). For the same compound, the MIC (Candida albicans) was 50 µg/mL (≈ 138 µM), the MIC (Candida tropicalis) was 12.5 µg/mL (≈ 34.4 µM) and the MIC (Cryptococcus neoformans) was 12.5 µg/mL (≈ 34.4 µM).
Work on Nc1nc(=O)[nH]cc1F [FLUCYTOSINE] yielded an MIC (Aspergillus flavus) of 1.6 µg/mL (≈ 12.4 µM), an MIC (Aspergillus niger) of 1.6 µg/mL (≈ 12.4 µM) and an MIC (Pichia kudriavzevii) of 3.2 µg/mL (≈ 24.8 µM). It also gave an MIC (Candida albicans) of 3.2 µg/mL (≈ 24.8 µM), an MIC (Candida tropicalis) of 3.2 µg/mL (≈ 24.8 µM) and an MIC (Cryptococcus neoformans) of 3.2 µg/mL (≈ 24.8 µM).
Compound CCc1nc2c(o1)C(=O)C(Nc1ccc(C#N)cc1)=C(Br)C2=O has an MIC (Aspergillus flavus) of 25 µg/mL (≈ 67.2 µM), an MIC (Aspergillus niger) of 25 µg/mL (≈ 67.2 µM) and an MIC (Pichia kudriavzevii) of 50 µg/mL (≈ 134 µM). For the same compound, the MIC (Candida albicans) was 50 µg/mL (≈ 134 µM), the MIC (Candida tropicalis) was 50 µg/mL (≈ 134 µM) and the MIC (Cryptococcus neoformans) was 25 µg/mL (≈ 67.2 µM).
